Columns and labels:
[1] = Reduction with ascorbic acid followed by HPLC; type: physicochemical; settings: 10 eq. ascorbic acid, 37 °C, pH 7, HPLC; for complex reduced: 3 h incubation
Method: (§1) The reduction reaction of two representative complexes (1A and 1P) and the release of the indole carboxylic acid ligands was analyzed by HPLC using ascorbic acid as the reductant and 37 °C, pH 7 as physiological conditions (Fig. 4 and S1). The HPLC chromatograms of the reduction reaction of the complexes were compared with the chromatograms of pure samples of the carboxylic acid ligands. […] After 3 h incubation with 10 eq. of ascorbic acid 75% of 1P and 50% of 1A was reduced. […] We further studied the nature of the Pt(II) species produced upon the reduction of 1P and 1A by ^195Pt NMR. […] Unfortunately, monitoring the reduction reaction of the symetrically (2A and 2P) and unsymmetrically (3A–5A and 3P–5P) substituted dicarboxylato complexes was hampered by the poor solubility of the complexes in water and most organic solvents except DMF and DMSO. For the same reason the reduction potentials could not be determined by cyclic voltammetry. However it has been reported that the reduction rate of cis,cis,trans-[Pt(NH3)2Cl2(RCOO)(OH)] monocarboxylato complexes is faster than that of dicarboxylato complexes and this has been attributed to the fact that hydroxido ligands are much better bridging ligands for electron transfer than carboxylate ligands.
The reduction of the complexes 1A and 1P) with ascorbic acid was followed by HPLC using a Phenomenex Luna C18 ([…], 100 Å, 250 mm × 4.60 mm i.d.) column at a flow rate of 1.0 mL/min with 280 nm UV detection at room temperature. The mobile phase was 80:20 acetonitrile (1% trifluoroacetic acid) : water (1% trifluoroacetic acid). The complexes were dissolved in DMF (0.5 mL) and added to a 5 mM solution of ascorbic acid in 2 mM 4-(2-hydroxyethyl)piperazine-1-ethanesulfonic acid (HEPES) buffer (pH 7) and diluted to a final concentration of 0.5 mM using acetonitrile. The process was followed at 37 °C until complete reduction.

[2] = Reduction with ascorbic acid followed by 195Pt NMR; type: physicochemical; settings: 1 eq. ascorbic acid, 37 °C
Method: as §1, with “However it has been reported that the reduction rate of cis,cis,trans-[Pt(NH3)2Cl2(RCOO)(OH)] monocarboxylato complexes is faster than that of dicarboxylato complexes and this has been attributed to the fact that hydroxido ligands are much better bridging ligands for electron transfer than carboxylate ligands.” left out
Compounds 1A and 1P (10 mM) were incubated at 37 °C, respectively, in the presence of 10 mM ascorbic acid in 12 mM HEPES buffer at pH 7. […] The ^195Pt NMR spectra were recorded by inserting a tube with D2O into the NMR tube.

A375 cells [3] = assay: Mitochondrial membrane potential; type: cell-based, human; settings: A375, IC50 concentrations, 24 and 48 h
Method: A persistent increase in the rate of ROS production is responsible for the accumulation of ROS. In turn, an increase in cellular ROS leads to the loss of the mitochondrial membrane potential (ΔΨm, MMP), thus possibly leading to the induction of apoptosis. The effect induced by the Pt(IV) complexes on the MMP was assessed by treating A375 cells with IC50 concentrations of 1P and 1A and evaluating the energization of treated melanoma cells in terms of the retention of the cationic fluorescent probe tetramethyl rhodamine methyl ester (TMRM).
Figure 9 Effects of 1P and 1A on the cellular mitochondrial membrane potential. […] The percentage of cells with a hypopolarized mitochondrial membrane potential was determined fluorimetrically.
The ΔΨm was assayed using the Mito-ID® Membrane Potential Kit according to the manufacturer’s instructions (Enzo Life Sciences, Farmingdale, NY). Briefly, A375 cells (8 × 10^3 per well) were seeded in 96-well plates, after 24 h, cells were washed with PBS and loaded with Mito-ID Detection Reagent for 30 min at 37 °C in the dark. Afterwards, cells were washed with PBS and incubated with increasing concentrations of the tested complexes. The fluorescence was estimated using a plate reader (Fluoroskan Ascent FL, Labsystem, Finland) at 490 (excitation) and 590 nm (emission).

A375 cells [4] = assay: Hoechst 33258 staining, apoptosis morphology; type: cell-based, human; settings: A375, IC50 doses, 48 h
Method: A375 cells were seeded into 8-well tissue-culture slides (BD Falcon, Bedford, MA, USA) at 5 × 10^4 cells/well (0.8 cm^2).

caspase-3 = assay: Caspase-3 activation; type: cell-based, human; settings: A375, IC50 doses, 48 h
Method: Caspase-3 cleavage reached values similar to that exerted by the well-known caspase-dependent apoptosis inducer staurosporine.
Protein aliquots (100 μg) were stained at 37 °C for 60 min with fluorescent caspase-3 substrate N-acetyl-Asp-Glu-Val-Asp-AMC (AMC = 7-amino-4-methylcoumarin) (Sigma Co.). Substrate hydrolysis was measured after 60 min by monitoring the release of AMC using a spectrofluorimeter (excitation at 370 nm, emission at 460 nm).

A375 melanoma cells = assay: Cellular accumulation of Pt (GF-AAS); type: cell-based, human; settings: for cellular platinum accumulation (in words): A375, 1.5 and 3 μM, 6 and 24 h
[5] = tested on: panel of human tumor cell lines (BxPC3, HCT-15, MCF-7, A431, A549, A375); assay: MTT cytotoxicity, mean over panel of human tumor cell lines; type: cell-based; settings: mean over the six cell lines of Table 1, 72 h
Method: The cytotoxic activity of the complexes and of the uncoordinated ligands was evaluated by the MTT test on a panel of human tumor cell lines containing examples of pancreatic (BxPC3), colorectal (HCT-15), breast (MCF-7), cervical (A431), and lung (A549) cancers as well as of melanoma (A375). For comparison purposes, the cytotoxicity of cisplatin was evaluated under the same experimental conditions.
The growth inhibitory effect toward tumor cells was evaluated by means of the MTT assay. Briefly, (3–8) × 10^3 cells/well, dependent upon the growth characteristics of the cell line, were seeded in 96-well microplates in growth medium (100 μL). After 24 h, the medium was removed and replaced with fresh medium containing the compound to be studied at the appropriate concentration. Triplicate cultures were established for each treatment. After 24, 48, or 72 h, each well was treated with 10 μL of a 5 mg/mL MTT saline solution and, after 5 h of incubation, 100 μL of a sodium dodecylsulfate (SDS) solution in 0.01 M HCl was added. After an overnight incubation, cell growth inhibition was detected by measuring the absorbance of each well at 570 nm using a Bio-Rad 680 microplate reader. The mean absorbance for each drug dose was expressed as a percentage of the control, untreated well absorbance and plotted vs drug concentration. The IC50 values, the drug concentrations that decrease the mean absorbance at 570 nm to 50% of that of untreated control wells, were calculated from the dose–response curves with the four-parameter logistic model (4PL). The final value is the mean ± S.D. of at least three independent experiments performed in triplicate.

For `[NH2][Pt]([NH2])([OH])([Cl])([Cl])[O]C(=O)Cc1c[nH]c2ccccc12` [Complex 1A], the “time to complete reduction” value [1] was 30 h, the complex reduced [1] was 50% and the “time to complete reduction” value [2] was 30 h. For the same molecule, the “cells with decreased mitochondrial membrane potential (in words)” value (A375 cells [3]) was “significant and time-dependent increase”, the “apoptotic morphology (in words)” value (A375 cells [4]) was “morphological features typical of cells undergoing apoptosis” and the “caspase-3 activity, factor over untreated control cells” value (caspase-3) was ~5.

For `[NH2][Pt]([NH2])([Cl])([Cl])([O]C(=O)CCC(=O)O)[O]C(=O)Cc1c[nH]c2ccccc12` [Complex 4A], the “cellular platinum accumulation (in words)” value (A375 melanoma cells) was “lowest platinum accumulation” and the “cellular uptake level, times lower than cisplatin” value (A375 melanoma cells; A375, GF-AAS) was “about 7”.

With `[NH2][Pt]([NH2])([OH])([Cl])([Cl])[O]C(=O)CCc1c[nH]c2ccccc12` [Complex 1P, cis,cis,trans-[Pt(NH3)2Cl2(IPA)(OH)]] the IC50 [5] was ~2500 nM, the “time to complete reduction” value [1] was 24 h and the complex reduced [1] was 75%. For the same molecule, the “time to complete reduction” value [2] was 24 h, the “cellular platinum, times greater than cisplatin” value (A375 melanoma cells; A375, 3 μM, 24 h, GF-AAS) was “about 2.3” and the “cellular platinum accumulation (in words)” value (A375 melanoma cells) was “internalized most efficiently”. The “cells with decreased mitochondrial membrane potential (in words)” value (A375 cells [3]) was “significant and time-dependent increase”, the “apoptotic morphology (in words)” value (A375 cells [4]) was “morphological features typical of cells undergoing apoptosis” and the “caspase-3 activity, factor over untreated control cells” value (caspase-3) was ~5.
